Measured values from ChEMBL document CHEMBL2057100, “The optimization of pyridazinone series of glucan synthase inhibitors” (Bioorg Med Chem Lett, 2012).
≈ marks a conversion by molar mass, not a printed value. Calls of active or inactive are those of the source. The rule behind the calls is not given here.

Assays:
Candida albicans [1] = experiment: Antifungal activity against Candida albicans C697 infected in normal mouse assessed as reduction of fungal burden in kidney at 100 mg/kg, ip; format: functional, organism-based; parameters: dose 100 mg/kg
Candida albicans [2] = experiment: Antifungal activity against Candida albicans C697 infected in immune compromised mouse assessed as reduction of fungal burden in kidney at 100 mg/kg, ip; format: functional, organism-based; parameters: dose 100 mg/kg
Aspergillus fumigatus [3] = experiment: Induction of morphological changes in Aspergillus fumigatus ND158 assessed as induction of truncated and highly branched hyphae; format: functional, organism-based
Beta-1,3-glucan synthase = target: T1, Beta-1,3-glucan synthase (Candida albicans, UniProt O13383); experiment: Inhibition of 1,3-beta-D-glucan synthase in Candida albicans BWP17 membranes; format: cell membranes
T1 sequence (O13383 whole entry): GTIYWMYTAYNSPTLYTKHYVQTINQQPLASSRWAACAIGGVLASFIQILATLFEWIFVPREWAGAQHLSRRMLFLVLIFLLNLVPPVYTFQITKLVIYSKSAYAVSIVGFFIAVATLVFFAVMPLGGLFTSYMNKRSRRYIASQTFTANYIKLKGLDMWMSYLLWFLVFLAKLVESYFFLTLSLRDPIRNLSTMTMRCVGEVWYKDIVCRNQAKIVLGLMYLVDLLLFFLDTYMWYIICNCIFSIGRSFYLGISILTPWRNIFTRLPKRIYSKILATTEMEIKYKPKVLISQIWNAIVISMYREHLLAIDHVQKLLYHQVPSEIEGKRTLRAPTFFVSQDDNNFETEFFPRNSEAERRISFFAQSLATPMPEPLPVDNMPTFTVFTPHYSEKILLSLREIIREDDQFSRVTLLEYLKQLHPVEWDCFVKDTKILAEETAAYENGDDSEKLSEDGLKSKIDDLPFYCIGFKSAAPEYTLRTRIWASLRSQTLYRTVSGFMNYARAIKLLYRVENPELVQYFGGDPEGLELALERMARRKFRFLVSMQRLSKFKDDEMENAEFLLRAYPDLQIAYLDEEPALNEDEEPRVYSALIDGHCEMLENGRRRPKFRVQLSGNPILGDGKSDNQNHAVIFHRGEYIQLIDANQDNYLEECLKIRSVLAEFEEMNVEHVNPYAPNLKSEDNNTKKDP

Nakaseomyces glabratus = experiment: Antifungal activity against Candida glabrata C624 by broth dilution method; format: functional; conditions: read-out: MIC100
Candida albicans [4] = experiment: Antifungal activity against Candida albicans C693 by broth dilution method; format: functional; conditions: read-out: MIC100
Aspergillus fumigatus [5] = experiment: Antifungal activity against Aspergillus fumigatus ND158 by broth dilution method; format: functional; conditions: read-out: MEC
[6] = AUC (0 to 6 hrs) in rat at 10 mg/kg, po; format: ADME, organism-based, Plasma; parameters: time < 6 hr, dose 10 mg/kg, route oral; conditions: plasma
[7] = Cmax in rat at 10 mg/kg, po; format: ADME, organism-based; parameters: dose 10 mg/kg, route oral; conditions: in vivo

| SMILES | IC50 (Beta-1,3-glucan synthase) [nM] | MIC (Nakaseomyces glabratus) [µg/mL] | MIC (Candida albicans [4]) [µg/mL] | AUC(0-t) at 6 h [6] [ng·h/mL] | Cmax [7] [ng/mL] | Activity (Candida albicans [1]) | Activity (Candida albicans [2]) | Activity (Aspergillus fumigatus [3]) | minimal effective concentration (Aspergillus fumigatus [5]) [µg/mL] |
| --- | --- | --- | --- | --- | --- | --- | --- | --- | --- |
| Cc1cc(CS(=O)(=O)N2CCN(c3cnn(-c4cccc(Cl)c4)c(=O)c3OCC3(C)CC3)CC2)ccc1N [listing 1 of 2 here] | – | – | – | – | – | Active | Active | Active | – |
| O=c1c(OC2CCCC2)c(N2CCN(S(=O)(=O)Cc3cc(C(F)(F)F)cc(C(F)(F)F)c3)CC2)cnn1-c1cccc(Cl)c1 | > 226000 | > 50 | > 50 | – | – | – | – | – | – |
| O=c1c(OC2CCCC2)c(N2CCN(S(=O)(=O)Cc3cc(Cl)cc(Cl)c3)CC2)cnn1-c1cccc(Cl)c1 | 351 | 0.39 (≈ 0.652 µM) | > 50 | – | – | – | – | – | – |
| Cc1cc(CS(=O)(=O)N2CCN(c3cnn(-c4cccc(Cl)c4)c(=O)c3OCC3(C)CC3)CC2)ccc1N [listing 2 of 2 here] | 143 | 0.13 (≈ 0.233 µM) | 1.04 (≈ 1.86 µM) | 15000 | 3000 | – | – | – | 2.08 |
| CC1(COc2c(N3CCN(S(=O)(=O)Cc4ccc(N)c(Cl)c4)CC3)cnn(-c3cc(F)cc(F)c3)c2=O)CC1 | 69 | < 0.02 | 0.13 (≈ 0.224 µM) | 1100 | 330 | – | – | – | 0.52 |
| CC1(COc2c(N3CCN(S(=O)(=O)Cc4ccc(N)c(F)c4)CC3)cnn(-c3cc(F)cc(F)c3)c2=O)CC1 | 53.2 | 0.06 (≈ 0.106 µM) | 0.26 (≈ 0.461 µM) | 890 | 310 | – | – | – | 2.08 |
| O=C(O)c1ccc(CS(=O)(=O)N2CCN(c3cnn(-c4cccc(Cl)c4)c(=O)c3OC3CCCC3)CC2)cc1 | 4190 | 25 (≈ 43.6 µM) | > 50 | – | – | – | – | – | – |
| Nc1ccc(CS(=O)(=O)N2CCN(c3cnn(-c4cc(F)cc(F)c4)c(=O)c3OC3CCCC3)CC2)cc1 | 110 | 0.26 (≈ 0.477 µM) | 1.04 (≈ 1.91 µM) | 8100 | – | – | – | – | – |

The next lines start with results.

| IC50 (Beta-1,3-glucan synthase) [nM] | MIC (Nakaseomyces glabratus) [µg/mL] | MIC (Candida albicans [4]) [µg/mL] | AUC(0-t) at 6 h [6] [ng·h/mL] | Cmax [7] [ng/mL] | SMILES | Activity (Candida albicans [1]) | Activity (Candida albicans [2]) | Activity (Aspergillus fumigatus [3]) | minimal effective concentration (Aspergillus fumigatus [5]) [µg/mL] |
| --- | --- | --- | --- | --- | --- | --- | --- | --- | --- |
| 1650 | 0.78 (≈ 1.43 µM) | 25 (≈ 45.9 µM) | – | – | O=c1c(OC2CCC(O)C2)c(N2CCN(S(=O)(=O)Cc3ccccc3)CC2)cnn1-c1cccc(Cl)c1 (centres undefined) | – | – | – | – |
| 6760 | 1.6 (≈ 2.7 µM) | > 50 | – | – | O=c1c(OC2CCCc3ncccc32)c(N2CCN(S(=O)(=O)Cc3ccccc3)CC2)cnn1-c1cccc(Cl)c1 (centres undefined) | – | – | – | – |
| 511 | 8.34 (≈ 14.2 µM) | > 33 | – | – | CC1(COc2c(N3CCN(S(=O)(=O)Cc4ccc(N)c(C(N)=O)c4)CC3)cnn(-c3cccc(Cl)c3)c2=O)CC1 | – | – | – | > 33 |
| 91.7 | 0.06 (≈ 0.11 µM) | 2.08 (≈ 3.82 µM) | 3100 | 1000 | CC1(COc2c(N3CCN(S(=O)(=O)Cc4ccc(N)nc4)CC3)cnn(-c3cccc(Cl)c3)c2=O)CC1 | – | – | – | 8.4 |
| 631 | 16.7 (≈ 28.5 µM) | > 33 | 2100 | 700 | CC(C)c1cc(CS(=O)(=O)N2CCN(c3cnn(-c4cccc(Cl)c4)c(=O)c3OCC3(C)CC3)CC2)ccc1N | – | – | – | > 33 |
| 56.7 | < 0.02 | 0.1 (≈ 0.189 µM) | – | – | CC1(COc2c(N3CCN(S(=O)(=O)Cc4ccccc4)CC3)cnn(-c3cccc(Cl)c3)c2=O)CC1 | – | – | – | – |
| 91.9 | 0.2 (≈ 0.368 µM) | 0.78 (≈ 1.43 µM) | – | – | Nc1ccc(CS(=O)(=O)N2CCN(c3cnn(-c4cccc(Cl)c4)c(=O)c3OC3CCCC3)CC2)cc1 | – | – | – | – |
| 315 | 0.13 (≈ 0.227 µM) | 4.2 (≈ 7.34 µM) | 9400 | 2300 | CCc1cc(CS(=O)(=O)N2CCN(c3cnn(-c4cccc(Cl)c4)c(=O)c3OCC3(C)CC3)CC2)ccc1N | – | – | – | 4.2 |
| 54.8 | < 0.02 | 0.2 (≈ 0.366 µM) | – | – | O=c1c(OCC2(CF)CC2)c(N2CCN(S(=O)(=O)Cc3ccccc3)CC2)cnn1-c1cccc(Cl)c1 | – | – | – | – |
| 105 | 0.06 (≈ 0.105 µM) | 0.52 (≈ 0.906 µM) | 13100 | 3300 | COc1cc(CS(=O)(=O)N2CCN(c3cnn(-c4cccc(Cl)c4)c(=O)c3OCC3(C)CC3)CC2)ccc1N | – | – | – | 2.08 |
| 275 | 1.04 (≈ 1.91 µM) | 16.7 (≈ 30.6 µM) | – | – | CC1(COc2c(N3CCN(S(=O)(=O)Cc4ccnc(N)c4)CC3)cnn(-c3cccc(Cl)c3)c2=O)CC1 | – | – | – | 8.4 |
| 1060 | 0.39 (≈ 0.689 µM) | 6.25 (≈ 11 µM) | – | – | O=c1c(OCCc2ccccn2)c(N2CCN(S(=O)(=O)Cc3ccccc3)CC2)cnn1-c1cccc(Cl)c1 | – | – | – | – |
